“And” between values parts separate entries of the source, which are not always exact repeats. Identical values can stand only once.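 Exposure lasted 48 hours, with cells grown in 96-well plates and compounds tested at five concentrations. Abbreviation: GI50, concentration required for 50% inhibition of growth.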 The source made the active and inactive calls. No stated cut-off is given here; in the data, active = GI50 up to about 1.1 µM and inactive = higher.
Tests used:
Experiment in all cases: inhibition of tumour cell growth, NCI panel, 48 h
ACHN = test system: ACHN
COLO 205 = test system: COLO 205
EKVX = test system: EKVX
HL-60 = test system: HL-60
HOP-62 = test system: HOP-62
HOP-92 = test system: HOP-92
HT-29 = test system: HT-29
Hs-578T = test system: Hs-578T
IGROV-1 = test system: IGROV-1
KM12 = test system: KM12
MDA-MB-231 = test system: MDA-MB-231
NCI-H226 = test system: NCI-H226
OVCAR-3 = test system: OVCAR-3
RPMI-8226 = test system: RPMI-8226
SK-OV-3 = test system: SK-OV-3
SN12C = test system: SN12C
SNB-75 = test system: SNB-75
U-251 = test system: U-251
UACC-257 = test system: UACC-257
A498 = test system: A498

| SMILES | GI50 (ACHN) | GI50 (COLO 205) | GI50 (EKVX) | GI50 (HL-60) | GI50 (HOP-62) | GI50 (HOP-92) | GI50 (HT-29) | GI50 (Hs-578T) | GI50 (IGROV-1) | GI50 (KM12) | GI50 (MDA-MB-231) | GI50 (NCI-H226) | GI50 (OVCAR-3) | GI50 (RPMI-8226) | GI50 (SK-OV-3) | GI50 (SN12C) | GI50 (SNB-75) | GI50 (U-251) | GI50 (UACC-257) | GI50 (A498) |
| --- | --- | --- | --- | --- | --- | --- | --- | --- | --- | --- | --- | --- | --- | --- | --- | --- | --- | --- | --- | --- |
| Cn1cc(NC(=O)Nc2cc(C(=O)Nc3cc(C(=O)Nc4ccc5cc(S(=O)(=O)O)cc(S(=O)(=O)O)c5c4)n(C)c3)n(C)c2)cc1C(=O)Nc1cc(C(=O)Nc2ccc3cc(S(=O)(=O)O)cc(S(=O)(=O)O)c3c2)n(C)c1 | > 100 µM (inactive) | > 100 µM (inactive) | 38.5 µM (inactive) | > 100 µM (inactive) | > 100 µM (inactive) | 90.8 µM (inactive) | > 100 µM (inactive) | > 100 µM (inactive) | > 100 µM (inactive) | > 100 µM (inactive) | > 100 µM (inactive) | > 100 µM (inactive) | 84.3 µM (inactive) | > 100 µM (inactive) | > 100 µM (inactive) | > 100 µM (inactive) | 82 µM (inactive) | > 100 µM (inactive) | > 100 µM (inactive) |  |
| Cc1nn(-c2ccccc2)c(C)c1/C=N/NC(=O)c1sc(=S)n(-c2ccccc2)c1N | 1.48 µM (inactive) | 1.42 µM (inactive) | 3.39 µM (inactive) | 20.5 µM (inactive) | 9.84 µM (inactive) |  | 2.69 µM (inactive) | 1.85 µM (inactive) | 0.221 µM (active) | 6.05 µM (inactive) | 2.18 µM (inactive) | 6.52 µM (inactive) | 16.1 µM (inactive) | 3.35 µM (inactive) | 1.45 µM (inactive) | 6.28 µM (inactive) | 0.281 µM (active) | 4.7 µM (inactive) | 4.9 µM (inactive) | 3.63 µM (inactive) |
| Cc1cn(C2CC(N(O)Cc3ccccc3)C(CO[Si](C)(C)C(C)(C)C)O2)c(=O)[nH]c1=O (stereo not given) | 26.7 µM (inactive) and 17.6 µM (inactive) | 18.5 µM (inactive) and 20.9 µM (inactive) | 25.4 µM (inactive) and 17.8 µM (inactive) | 29.8 µM (inactive) and 36.5 µM (inactive) | 19.5 µM (inactive) and 16.3 µM (inactive) | 16 µM (inactive) and 18.7 µM (inactive) | 17.3 µM (inactive) and 22.9 µM (inactive) | 18.4 µM (inactive) and 16.5 µM (inactive) | 15.7 µM (inactive) and 25.5 µM (inactive) | 23 µM (inactive) and 17.2 µM (inactive) | 16.8 µM (inactive) and 16.5 µM (inactive) | 18.6 µM (inactive) and 18.8 µM (inactive) | 17.7 µM (inactive) | 30.6 µM (inactive) |  | 16 µM (inactive) and 16.1 µM (inactive) |  | 15.1 µM (inactive) and 19.6 µM (inactive) | 16.4 µM (inactive) and 26.4 µM (inactive) | 13.8 µM (inactive) and 26.7 µM (inactive) |
| COC(=O)[C@]12CC3C=CC1N(C3)C(CBr)c1c2n(S(=O)(=O)c2ccccc2)c2ccccc12 (stereo not given in full) | 48.3 µM (inactive) | > 100 µM (inactive) | 80 µM (inactive) | 35.1 µM (inactive) | 92.3 µM (inactive) |  | 45.3 µM (inactive) | 39.9 µM (inactive) | 72.9 µM (inactive) | > 100 µM (inactive) | 57.1 µM (inactive) | 41.7 µM (inactive) | 97.7 µM (inactive) | 0.292 µM (active) | > 100 µM (inactive) | > 100 µM (inactive) | 25.9 µM (inactive) | 63 µM (inactive) | > 100 µM (inactive) |  |
| C=CCOCn1ccc(NC(=O)c2ccccc2)nc1=O | > 100 µM (inactive) | > 100 µM (inactive) | > 100 µM (inactive) | > 100 µM (inactive) | > 100 µM (inactive) |  | > 100 µM (inactive) | > 100 µM (inactive) | > 100 µM (inactive) | > 100 µM (inactive) | > 100 µM (inactive) | > 100 µM (inactive) |  | > 100 µM (inactive) | > 100 µM (inactive) | > 100 µM (inactive) | > 100 µM (inactive) |  | > 100 µM (inactive) | > 100 µM (inactive) |
| CCOC(=O)C1=COC(C)(c2ccccc2)CC1=O (stereo not given) | > 100 µM (inactive) | > 100 µM (inactive) | > 100 µM (inactive) |  | > 100 µM (inactive) |  | > 100 µM (inactive) | 88.9 µM (inactive) |  | > 100 µM (inactive) | > 100 µM (inactive) |  | > 100 µM (inactive) | > 100 µM (inactive) | > 100 µM (inactive) | > 100 µM (inactive) | > 100 µM (inactive) | > 100 µM (inactive) | > 100 µM (inactive) | > 100 µM (inactive) |
| OCCCN(CCc1ccc(Cl)c(Cl)c1)CCN1CCCC1 | 64.6 µM (inactive) |  | > 100 µM (inactive) | 34.4 µM (inactive) | > 100 µM (inactive) | > 100 µM (inactive) | 24.7 µM (inactive) | 38.8 µM (inactive) | > 100 µM (inactive) | 45.7 µM (inactive) | 32.5 µM (inactive) |  | > 100 µM (inactive) | 26.5 µM (inactive) | > 100 µM (inactive) | 73.3 µM (inactive) | 33 µM (inactive) | 48.1 µM (inactive) | 19.3 µM (inactive) | 17.3 µM (inactive) |
